Results on one compound are retold here after patent publication US12522562B2, “Intestine-specific partial agonists of farnesoid X receptor and uses thereof” (EWHA DrugDesignHouse Co., Ltd., priority 2022, dated 2026).

Read-outs that look alike come from different tables or passages of the source. Marks after values point to notes of the source that are not given here.

One test deals with T1, PPARγ (Homo sapiens, UniProt P37231).
T1 sequence (P37231 1-505): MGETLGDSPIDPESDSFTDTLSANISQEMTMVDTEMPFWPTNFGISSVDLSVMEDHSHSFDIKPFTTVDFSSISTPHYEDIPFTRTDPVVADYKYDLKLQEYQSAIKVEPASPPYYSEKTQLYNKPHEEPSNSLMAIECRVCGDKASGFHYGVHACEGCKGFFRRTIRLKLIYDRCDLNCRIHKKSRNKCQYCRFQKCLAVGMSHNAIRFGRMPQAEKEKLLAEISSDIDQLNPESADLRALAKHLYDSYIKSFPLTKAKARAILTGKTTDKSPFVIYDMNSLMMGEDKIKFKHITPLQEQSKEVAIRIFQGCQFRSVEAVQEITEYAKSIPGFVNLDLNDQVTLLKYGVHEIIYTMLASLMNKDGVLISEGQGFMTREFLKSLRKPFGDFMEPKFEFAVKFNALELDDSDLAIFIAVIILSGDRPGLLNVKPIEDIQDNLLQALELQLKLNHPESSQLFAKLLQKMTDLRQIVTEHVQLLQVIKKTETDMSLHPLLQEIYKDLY
The test can be described thus: Nuclear receptor selectivity panel (PathHunter NHR protein interaction assay). The following applies: read-out: % max. rel. efficacy at 100 uM, 100 μM; relative to troglitazone.

A further test has as its target T2, LXRβ (Homo sapiens, UniProt P55055).
T2 sequence (P55055 1-460): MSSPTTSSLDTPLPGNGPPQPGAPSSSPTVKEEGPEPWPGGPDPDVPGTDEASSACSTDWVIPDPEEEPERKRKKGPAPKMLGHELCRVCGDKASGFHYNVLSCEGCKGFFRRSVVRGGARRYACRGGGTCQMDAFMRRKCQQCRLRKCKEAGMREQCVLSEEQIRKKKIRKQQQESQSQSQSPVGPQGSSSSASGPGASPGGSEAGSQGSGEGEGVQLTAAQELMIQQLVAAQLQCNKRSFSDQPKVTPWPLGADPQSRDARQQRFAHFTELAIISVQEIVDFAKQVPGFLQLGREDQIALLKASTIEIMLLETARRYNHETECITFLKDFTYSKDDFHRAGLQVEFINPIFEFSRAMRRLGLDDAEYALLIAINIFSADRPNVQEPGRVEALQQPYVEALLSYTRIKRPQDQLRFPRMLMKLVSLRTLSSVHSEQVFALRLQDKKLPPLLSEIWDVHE
Described as above. The following applies: read-out: % max. rel. efficacy at 100 uM, 100 μM; relative to TO901317.

For the next test, the target named is T3, FXR (Homo sapiens, UniProt Q96RI1).
T3 sequence (Q96RI1 1-486): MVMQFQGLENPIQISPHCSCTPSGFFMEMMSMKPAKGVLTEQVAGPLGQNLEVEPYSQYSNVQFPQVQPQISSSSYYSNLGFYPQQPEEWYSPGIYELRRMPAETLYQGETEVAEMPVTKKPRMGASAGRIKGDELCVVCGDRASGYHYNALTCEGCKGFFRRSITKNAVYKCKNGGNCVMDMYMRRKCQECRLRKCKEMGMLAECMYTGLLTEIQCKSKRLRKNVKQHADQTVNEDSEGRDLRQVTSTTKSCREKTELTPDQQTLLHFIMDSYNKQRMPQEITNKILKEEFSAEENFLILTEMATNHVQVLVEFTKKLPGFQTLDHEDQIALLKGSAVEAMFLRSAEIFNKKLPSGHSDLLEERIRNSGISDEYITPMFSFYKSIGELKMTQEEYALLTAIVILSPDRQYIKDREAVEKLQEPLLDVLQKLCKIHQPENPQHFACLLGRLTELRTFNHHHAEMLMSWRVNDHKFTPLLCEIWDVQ
Put plainly: PathHunter NHR protein interaction assay, agonist mode (FXR).

The next test addresses T4, Erα (Homo sapiens, UniProt P03372).
T4 sequence (P03372 1-595): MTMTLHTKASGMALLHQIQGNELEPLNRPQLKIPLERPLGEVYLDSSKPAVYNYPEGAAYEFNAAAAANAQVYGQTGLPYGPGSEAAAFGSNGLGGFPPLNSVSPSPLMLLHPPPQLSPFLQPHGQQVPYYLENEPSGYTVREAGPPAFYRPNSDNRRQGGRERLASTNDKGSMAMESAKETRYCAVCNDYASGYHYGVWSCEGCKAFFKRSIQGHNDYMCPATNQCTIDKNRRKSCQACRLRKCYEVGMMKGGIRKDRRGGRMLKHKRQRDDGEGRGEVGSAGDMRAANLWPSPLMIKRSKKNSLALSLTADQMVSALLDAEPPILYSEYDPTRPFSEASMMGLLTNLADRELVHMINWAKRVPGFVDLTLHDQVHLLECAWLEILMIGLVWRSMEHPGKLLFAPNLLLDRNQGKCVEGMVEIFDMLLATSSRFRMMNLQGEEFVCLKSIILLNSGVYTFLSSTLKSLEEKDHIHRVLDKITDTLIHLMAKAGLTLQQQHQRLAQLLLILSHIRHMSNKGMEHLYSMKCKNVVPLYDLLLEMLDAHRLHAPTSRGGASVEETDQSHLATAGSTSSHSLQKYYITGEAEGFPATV
Put plainly: Nuclear receptor selectivity panel (PathHunter NHR protein interaction assay). The settings on record: relative to 17β-estradiol.

Description for FXR: PathHunter® CHO-K1 FXR protein interaction cells were expanded from freezer stocks according to standard procedures. Cells were seeded in a total volume of 20 μL into white walled, 384-well microplates and incubated at 37° C. for the appropriate time prior to testing. Assay media contained charcoal-dextran filtered serum to reduce the level of hormones present. For agonist determination, cells were incubated with sample to induce response. […] For antagonist determination, cells were pre-incubated with antagonist followed by agonist challenge at the EC80 concentration. […] Microplates were read following signal generation with a PerkinElmer Envision™ instrument for chemiluminescent signal detection. Compound activity was analyzed using CBIS data analysis suite (ChemInnovation, CA). For agonist mode assays, percentage activity was calculated using the following formula: % Activity=100%×(mean RLU of test sample−mean RLU of vehicle control)/(mean MAX control ligand−mean RLU of vehicle control).
In this assay, two weakly complementing fragments of the β-galactosidase are expressed within stably transfected cells. The complementing fragments of the β-galactosidase are translationally fused to the C-terminus of a full-length FXR and to the steroid receptor coactivator peptide (SRCP), respectively. When bound by ligand, the FXR will migrate to the nucleus and recruit the SRCP domain, whereby complementation occurs, generating a unit of active β-galactosidase and production of chemiluminescent signal. Thus, measurement of chemiluminescent signal directly reflects FXR-coactivator interaction.

Regarding `COC(=O)/C=C/c1cccc(N(Cc2ccc(-c3ccc(N(C)C)cc3)c(C#N)c2)C(=O)C2CCCCC2)c1` [Example 4, (E)-3-(3-((2-cyano-4′-dimethylaminobiphenyl-4-ylmethyl)cyclohexanecarbonylamino)phenyl)acrylic Acid Methyl Ester], the Emax at 100 µM is below 3% at PPARγ; below 3% on LXRβ; 47% at FXR (read-out: % max. rel. efficacy at 100 uM, Table 3, 100 μM, relative to GW4064). Moreover, the EC50 was 1000 nM at FXR; 800 nM on FXR (Table 2, 5 concentrations, 3-fold dilution from 3.3 μM (GW4064: 10 conc. from 10 μM), one experiment in duplicate, NA = inactive at 3.3 μM); 800 ± 100 nM at FXR (Table 5, mean ± SEM of two or three independent experiments in duplicate). The “% max. rel. efficacy” value at FXR (Table 5, relative to GW4064, mean ± SEM of two or three independent experiments in duplicate) was 40 ± 8^b %. Also, the Emax turned out to be 24% at FXR (read-out: % max. rel. efficacy, Table 2, relative to GW4064, top conc. 3.3 μM, one experiment in duplicate); 47% on FXR (read-out: % max. rel. efficacy, Table 4, relative to GW4064, top conc. 3.3 μM, one experiment in duplicate); 40 ± 8% at FXR (read-out: % max. rel. efficacy, Table 5, relative to GW4064, mean ± SEM of two or three independent experiments in duplicate). Besides, the “% max. rel. efficacy at 100 uM” value at Erα is given as 1%.

The EC50 is the concentration giving half of the maximal effect.
